Source: ChEMBL document CHEMBL1201862, “PubChem BioAssay data set” (2004)
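Test compounds were applied to cells in 96-well plates for 48 hours at 5 doses. GI50 = concentration required for 50% inhibition of growth.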 Calls of active or inactive are those of the source. Cut-off read from the data, not from the text of the source: active = GI50 up to about 1.1 µM and inactive = higher. Starred links: 1 amine or outer side, 2 acyl side, 3 side chain; linkers in the order of their positions; H or OH if unused. Positions of bridges follow the written chain, without caps; N, C: chain ends. Non-standard residues stand in square brackets, D forms with d. Residues, ends and D or L forms follow the SMILES beside them. ξ: configuration not given here. X11 = CCC(C)C(N[*:1])C(O)CC(=O)O[C@H](C(=O)C(C)C(=O)[*:2])C(C)C; X10 = O=C([C@@H]1CC(O)CN1[*:1])[*:2]; NMeY = CN[C@@H](Cc1ccc(O)cc1)C(=O)O; ξNMeL = CNC(CC(C)C)C(=O)O; ξT = CC(O)C(N)C(=O)O

Tests used:
Assay in all cases: NCI-60 cell line screen, 48 h
KM-20L2 = test system: KM-20L2
HCC 2998 = test system: HCC 2998
MOLT-4 = test system: MOLT-4
NCI-H226 = test system: NCI-H226
SNB-78 = test system: SNB-78
HOP-92 = test system: HOP-92
SN12C = test system: SN12C
SNB-19 = test system: SNB-19
SK-MEL-28 = test system: SK-MEL-28
M14 = test system: M14
A498 = test system: A498
T47D = test system: T47D
MCF7 = test system: MCF7
MDA-N = test system: MDA-N
MDA-MB-435 = test system: MDA-MB-435
Hs-578T = test system: Hs-578T
DU-145 = test system: DU-145
NCI/ADR-RES = test system: NCI/ADR-RES
PC-3 = test system: PC-3
BT-549 = test system: BT-549

SMILES | GI50 (KM-20L2) | GI50 (HCC 2998) | GI50 (MOLT-4) | GI50 (NCI-H226) | GI50 (SNB-78) | GI50 (HOP-92) | GI50 (SN12C) | GI50 (SNB-19) | GI50 (SK-MEL-28) | GI50 (M14) | GI50 (A498) | GI50 (T47D) | GI50 (MCF7) | GI50 (MDA-N) | GI50 (MDA-MB-435) | GI50 (Hs-578T) | GI50 (DU-145) | GI50 (NCI/ADR-RES) | GI50 (PC-3) | GI50 (BT-549)
Cc1cc(O)nc(NN2C(Cl)C(=O)C2c2cccc([N+](=O)[O-])c2)n1 (stereo not drawn) | 27.3 µM (inactive) | 18.5 µM (inactive) | 14.3 µM (inactive) | 12.3 µM (inactive) | 32.2 µM (inactive) | 19.3 µM (inactive) | 18.1 µM (inactive) | 44 µM (inactive) | 17.1 µM (inactive) | 17.3 µM (inactive) |  |  |  |  |  |  |  |  |  | 
C/C=C/C(C#N)O[Si](C)(C)C (stereo not drawn) | > 100 µM (inactive) | > 100 µM (inactive) | > 100 µM (inactive) | > 100 µM (inactive) | > 100 µM (inactive) | > 100 µM (inactive) | > 100 µM (inactive) | > 100 µM (inactive) | > 100 µM (inactive) | > 100 µM (inactive) | > 100 µM (inactive) |  |  |  |  |  |  |  |  | 
COC(=O)C(=O)C(C(=O)OC)C(=O)C(=O)Nc1cc(Cl)c(Cl)cc1Cl (stereo not drawn) | > 100 µM (inactive) | > 100 µM (inactive) | > 100 µM (inactive) | > 100 µM (inactive) |  | > 100 µM (inactive) | > 100 µM (inactive) | > 100 µM (inactive) | > 100 µM (inactive) | > 100 µM (inactive) | > 100 µM (inactive) |  |  |  |  |  |  |  |  | 
CC1(C)C2CCC3(OCCO3)C1C1OC12 (stereo not drawn) | > 100 µM (inactive) |  | > 100 µM (inactive) | > 100 µM (inactive) | > 100 µM (inactive) | > 100 µM (inactive) |  | 30 µM (inactive) | > 100 µM (inactive) | > 100 µM (inactive) | > 100 µM (inactive) |  |  |  |  |  |  |  |  | 
COc1ccc(CCC2NCCc3cc(OC)c(OC)cc32)cc1 (stereo not drawn) | > 100 µM (inactive) | > 100 µM (inactive) | > 100 µM (inactive) |  | 79.8 µM (inactive) |  | > 100 µM (inactive) | > 100 µM (inactive) | > 100 µM (inactive) | > 100 µM (inactive) | > 100 µM (inactive) |  |  |  |  |  |  |  |  | 
CN(CCN(C)CCN(C)C(=O)Cc1ccc(Cl)c(Cl)c1)CCN1CCCC1 |  | 11.7 µM (inactive) | 10.6 µM (inactive) | 30.5 µM (inactive) |  | 5.71 µM (inactive) | 39 µM (inactive) | 39 µM (inactive) | 1.94 µM (inactive) | 25.9 µM (inactive) | 16.4 µM (inactive) | 24.6 µM (inactive) | 24.2 µM (inactive) | 6.85 µM (inactive) | 5.68 µM (inactive) | 28.5 µM (inactive) | 57.3 µM (inactive) | > 100 µM (inactive) | 34.7 µM (inactive) | 25.7 µM (inactive)
C=C(Nc1ccc(OC)cc1OC)C(=O)Cc1cccc[n+]1[O-] | > 100 µM (inactive) | > 100 µM (inactive) | > 100 µM (inactive) | > 100 µM (inactive) | > 100 µM (inactive) | > 100 µM (inactive) | > 100 µM (inactive) | > 100 µM (inactive) | > 100 µM (inactive) | > 100 µM (inactive) | > 100 µM (inactive) |  |  |  |  |  |  |  |  | 
CCOC(=O)C1C(=O)CN2CCc3c([nH]c4ccccc34)C12C(=O)OCC (stereo not drawn) | > 100 µM (inactive) | > 100 µM (inactive) | > 100 µM (inactive) | > 100 µM (inactive) | > 100 µM (inactive) | > 100 µM (inactive) | > 100 µM (inactive) | > 100 µM (inactive) | > 100 µM (inactive) | > 100 µM (inactive) | > 100 µM (inactive) |  |  |  |  |  |  |  |  | 
Cc1ccc(NC(=O)/C(=N\Nc2ccc([N+](=O)[O-])cc2[N+](=O)[O-])C2C(=O)NC(=O)NC2=O)cc1 | 15.4 µM (inactive) |  |  | > 100 µM (inactive) | > 100 µM (inactive) | > 100 µM (inactive) | > 100 µM (inactive) | > 100 µM (inactive) | > 100 µM (inactive) | 89.7 µM (inactive) | > 100 µM (inactive) |  |  |  |  |  |  |  |  | 
N#CN=C(N(Cc1ccccc1)Cc1ccccc1)N(Cc1ccccc1)Cc1ccccc1 | 16.4 µM (inactive) | 47 µM (inactive) | 2.74 µM (inactive) | 32.5 µM (inactive) | > 100 µM (inactive) |  | 23.4 µM (inactive) | 28.7 µM (inactive) |  | 15.3 µM (inactive) | 14.7 µM (inactive) |  |  |  |  |  |  |  |  | 
O=C1/C(=C/c2ccccc2)CN(C(=O)C(Cl)(Cl)Cl)C/C1=C\c1ccccc1 | 2.16 µM (inactive) |  | 1.36 µM (inactive) |  | 2.72 µM (inactive) |  | 1.72 µM (inactive) | 2.82 µM (inactive) | 1.73 µM (inactive) | 1.26 µM (inactive) | 4.24 µM (inactive) |  |  |  |  |  |  |  |  | 
Cc1ccc(-c2nnc3s/c(=C\c4ccc(N(C)C)cc4)c(=O)n23)cc1 | > 100 µM (inactive) | > 100 µM (inactive) | > 100 µM (inactive) | > 100 µM (inactive) | > 100 µM (inactive) | > 100 µM (inactive) | > 100 µM (inactive) | > 100 µM (inactive) | > 100 µM (inactive) | > 100 µM (inactive) | 89.9 µM (inactive) |  |  |  |  |  |  |  |  | 
O=S(=O)(N/N=C/c1c(Cl)cccc1Cl)c1ccccc1 | > 100 µM (inactive) | > 100 µM (inactive) | 91.4 µM (inactive) | > 100 µM (inactive) | > 100 µM (inactive) | > 100 µM (inactive) | > 100 µM (inactive) |  | > 100 µM (inactive) | > 100 µM (inactive) | > 100 µM (inactive) |  |  |  |  |  |  |  |  | 
N#CCC(=O)N/N=C1\C(=O)N(c2ccc(Cl)cc2)C(=O)C(=O)C1c1nc2ccccc2o1 (stereo not drawn) | > 100 µM (inactive) | > 100 µM (inactive) | > 100 µM (inactive) | > 100 µM (inactive) | > 100 µM (inactive) | 91.8 µM (inactive) | > 100 µM (inactive) | > 100 µM (inactive) | > 100 µM (inactive) | > 100 µM (inactive) | > 100 µM (inactive) |  |  |  |  |  |  |  |  | 
O=C(c1cccs1)N(C(=S)N1CCN(c2ccccc2)CC1)c1ccccc1 | > 100 µM (inactive) |  | > 100 µM (inactive) | 47.6 µM (inactive) | > 100 µM (inactive) | > 100 µM (inactive) | > 100 µM (inactive) | > 100 µM (inactive) | > 100 µM (inactive) | > 100 µM (inactive) |  |  |  |  |  |  |  |  |  | 
CC1=Nc2ccccc2C12C(c1ccccc1)C(c1ccccc1)C(=O)N1c3ccccc3CC12 (stereo not drawn) | > 100 µM (inactive) | > 100 µM (inactive) | > 100 µM (inactive) | > 100 µM (inactive) | > 100 µM (inactive) | > 100 µM (inactive) | > 100 µM (inactive) | > 100 µM (inactive) | > 100 µM (inactive) | > 100 µM (inactive) | > 100 µM (inactive) |  |  |  |  |  |  |  |  | 
CC1(C)OCC[C@@H]1[Si](C)(C)C | > 100 µM (inactive) |  | 33 µM (inactive) | 70.1 µM (inactive) | > 100 µM (inactive) | 55.8 µM (inactive) | > 100 µM (inactive) | > 100 µM (inactive) | 84.7 µM (inactive) | > 100 µM (inactive) | 30.1 µM (inactive) |  |  |  |  |  |  |  |  | 
Cc1cccc(C)c1NC(=O)C(=O)C1C(=O)N(c2ccccc2)N=C1N (stereo not drawn) | > 100 µM (inactive) | > 100 µM (inactive) | > 100 µM (inactive) | > 100 µM (inactive) | > 100 µM (inactive) | > 100 µM (inactive) | > 100 µM (inactive) | > 100 µM (inactive) | > 100 µM (inactive) | > 100 µM (inactive) | > 100 µM (inactive) |  |  |  |  |  |  |  |  | 
CN(C)C(=S)SCC(N)=O |  | > 100 µM (inactive) | > 100 µM (inactive) | 45.3 µM (inactive) |  | > 100 µM (inactive) | > 100 µM (inactive) | > 100 µM (inactive) | > 100 µM (inactive) | > 100 µM (inactive) | > 100 µM (inactive) | > 100 µM (inactive) | > 100 µM (inactive) | > 100 µM (inactive) | > 100 µM (inactive) | > 100 µM (inactive) | > 100 µM (inactive) | > 100 µM (inactive) | > 100 µM (inactive) | > 100 µM (inactive)
COc1ccc(NC(=O)C(=O)NO)c(OC)c1 | 19.1 µM (inactive) | 21.4 µM (inactive) | 11.9 µM (inactive) | 22.3 µM (inactive) | 19.8 µM (inactive) | 20.6 µM (inactive) | 20 µM (inactive) | 14.9 µM (inactive) | 17.5 µM (inactive) | 16.3 µM (inactive) | 21.5 µM (inactive) |  |  |  |  |  |  |  |  | 
CCOC(=O)c1nc2ccccc2n(CC)c1=O |  | > 100 µM (inactive) | > 100 µM (inactive) | > 100 µM (inactive) |  | > 100 µM (inactive) | > 100 µM (inactive) | > 100 µM (inactive) | > 100 µM (inactive) | > 100 µM (inactive) | > 100 µM (inactive) | > 100 µM (inactive) | > 100 µM (inactive) | > 100 µM (inactive) | > 100 µM (inactive) | > 100 µM (inactive) | > 100 µM (inactive) | > 100 µM (inactive) | > 100 µM (inactive) | > 100 µM (inactive)
CCC(C)C1NC(=O)C(NC(=O)C(CC(C)C)N(C)C(=O)[C@@H]2CC(O)CN2)C(C)OC(=O)[C@H](Cc2ccc(OC)cc2)N(C)C(=O)[C@@H]2CCCN2C(=O)[C@H](CC(C)C)NC(=O)C(C)C(=O)[C@H](C(C)C)OC(=O)CC1O (stereo partly drawn) (H-[X10][ξNMeL][ξT][X11]LP[NMeY](Me); ester 3-C) |  | 0.00469 µM (active) | 0.00161 µM (active) | 0.00182 µM (active) |  | 0.0189 µM (active) | 0.00951 µM (active) | 0.00819 µM (active) | < 0.001 µM (active) | 0.00419 µM (active) | 0.0548 µM (active) | 0.0035 µM (active) | < 0.001 µM (active) | 0.00561 µM (active) | 0.0102 µM (active) | < 0.001 µM (active) | 0.0363 µM (active) | 1.45 µM (inactive) | 0.0135 µM (active) | 0.00609 µM (active)
